Consider one compound from US4833134A, “Cephem compounds” (Takeda Chemical Industries, Ltd., priority 1986, dated 1989).

Where a name gives a salt, the structure may show the parent alone.

In general, MIC refers to the least concentration at which growth counts as inhibited.

Assay [1] deals with Staphylococcus aureus 1840. The assay is described as follows: MIC (minimum inhibitory concentration), agar dilution method. The conditions noted are these: trypticase soy agar, ca. 10^8 CFU/ml, 37° C., 18 hours. It is filed as cell-based. As to the method:
(§1) The MIC value of the test compound was determined by agar dilution method. More specifically, 1.0 ml of an aqueous solution of the test compound diluted serially was poured into a petri dish, to which were added 9.0 ml of trypticase soy agar, followed by mixing. On the mixed agar plate was spread a suspension of the test microorganism (ca. 10^8 CFU/ml), which was incubated at 37° C. for 18 hours. The lowest concentration of the test compound completely inhibiting the growth of the test microorganism was expressed by MIC (minimum inhibitory concentration).
(1) Staphylococcus aureus 1840

Another assay relates to Escherichia coli T7. The description is as above. It is filed as cell-based. The conditions noted are these: trypticase soy agar, ca. 10^8 CFU/ml, 37° C., 18 hours. As to the method:
as §1

As for `CCON=C(C(=O)NC1C(=O)N2C(C(=O)[O-])=C(C[n+]3ccc(SCCCN)cc3)CSC12)c1csc(N)n1` (stereo not drawn) [Example 2, 7β-[2-(2-aminothiazol-4-yl)-(Z)-2-ethoxyiminoacetamido]-3-{[4-(3-aminopropylthio)-1-pyridinium]methyl}-3-cephem-4-carboxylate hydrochloride], the MIC in assay [1] was 0.78 µg/mL; against Escherichia coli T7, 0.2 µg/mL.
